Source: PMC6150246, “Design, Synthesis and Preliminary Biological Evaluation of Novel Benzyl Sulfoxide 2-Indolinone Derivatives as Anticancer Agents” (Molecules : A Journal of Synthetic Chemistry and Natural …, 2017)

Experiments:
[1] = system: human cervical carcinoma cell line HeLa; assay: MTS cytotoxicity assay, HeLa; format: cell-based; conditions: for IC50: Homo sapiens, HeLa, 48 h treatment
From the text: (§1) To investigate the relationship between anticancer activity and tyrosine kinase inhibitory activity, these compounds were further evaluated for in vitro cytotoxicity against five cancer cell lines (human cervical carcinoma cell line HeLa, human breast carcinoma cell line MCF-7, human liver carcinoma cell line HepG2, human tongue carcinoma cell line SCC-15, and human lung carcinoma A549) using MTS assay. Indo 5 was also used as a reference compound.
(§2) The five types of human cancer cell lines (HeLa, HepG2, MCF-7, SCC-15, and A549) were cultured aseptically using Dulbecco’s modified Eagle’s medium (DMEM) supplemented with 10% (v/v) fetal bovine serum (FBS) and penicillin (100 units mL^−1)/streptomycin ([…]), at pH 7.2 and 5% CO2 humidified atmosphere at 37 °C. After attaining 80% confluence, the cells were trypsinized with 0.25 trypsin–EDTA and diluted with media to a fixed number of cells.
(§3) Cytotoxic activity was assessed using the standard MTS method by using triplicate assay. The cells were seeded into 96-well plates containing the medium at the density of 4000–6000 cells/mL (100 μL/well). The compounds were dissolved in DMSO to the concentration of 100 mM and diluted in a culture medium to the concentrations needed. After 24 h, the cultured cells were treated with concentrations of synthesized compounds (3.125 μM to 100 μM for tumor cells) for 48 h. After 48 h of incubation, the supernatant was replaced by fresh medium (100 μL/well) and 10 μL MTS reagent ([3-(4,5-dimethylthiazol-2-yl)-5-(3-carboxymethoxyphenyl)-2-(4-sulfophenyl)-2H-tetrazolium, inner salt]) was added to each well. The plate was further incubated for 3 h at 37 °C in 5% CO2. The optical absorbance in individual wells was determined at 492 nm using a microplate reader. The inhibition rates were calculated by the following formula: Inhibition rate (%) = (ODnegative control − ODsample)/(ODnegative control − ODblank) × 100%
(§4) IC50 was calculated using GraphPad Prism Software (GraphPad Prism 5, La Jolla, CA, USA). For each concentration, at least three wells were performed to calculate the average parameter.

[2] = system: human liver carcinoma cell line HepG2; assay: MTS cytotoxicity assay, HepG2; format: cell-based; conditions: for IC50: Homo sapiens, HepG2, 48 h treatment
From the text: as §1, §2, §3, §4

[3] = system: human lung carcinoma A549; assay: MTS cytotoxicity assay, A549; format: cell-based; conditions: Homo sapiens, A549, 48 h treatment
From the text: as §1, §2, §3, §4

[4] = system: five human cancer cell lines (HeLa, HepG2, MCF-7, SCC-15, and A549); assay: MTS cytotoxicity assay, across the cancer cell line panel; format: cell-based; conditions: for IC50: Homo sapiens, average over the cancer cell lines, read-out: average IC50 value (antitumor potential); for anticancer / antiproliferative activity over the cell line panel, in words: MTS, Indo 5 as reference
From the text: as §1, §2, §3, §4

[5] = system: human tongue carcinoma cell line SCC-15; assay: MTS cytotoxicity assay, SCC-15; format: cell-based; conditions: for IC50: Homo sapiens, SCC-15, 48 h treatment
From the text: as §1, §2, §3, §4

[6] = system: human breast carcinoma cell line MCF-7; assay: MTS cytotoxicity assay, MCF-7; format: cell-based; conditions: for IC50: Homo sapiens, MCF7, 48 h treatment
From the text: as §1, §2, §3, §4

[7] = molecular target: tyrosine kinase; assay: Tyrosine kinase inhibitory activity assay (self-made ELISA kit); format: biochemical; conditions: tyrosine kinase tissue extract, 37 °C 30 min
Experimental: The 16 designed compounds were first evaluated for tyrosine kinase inhibitory activity using ELISA assay. Indo 5 was used as a reference compound. The kit was self-made and is a very effective and economical method for preliminary tyrosine kinase inhibitory activity evaluation.
The tyrosine kinase inhibitory activity assay was performed as described in the literature. Details of the experimental procedures are presented in Supplementary Materials associated with this article. The IC50 was calculated using GraphPad Prism Software (GraphPad Prism 5, La Jolla, CA, USA). For each concentration, at least three wells were performed to calculate the average parameter.
100μL to each well. The plate was covered with its lid, and incubated at 4℃ overnight (10-12 hours). Then it was washed with 200μL elution buffer once, and dried at 37℃ for 2 h. After that, it was washed with 10mM PBS once, dried at room temperature, and then stored at 4℃ […]
2.1.5. Groups: Blank control: 60μL 1×tyrosine kinase buffer + 50μL 1×tyrosine kinase buffer containing ATP; Negative control: 10μL 1×tyrosine kinase buffer + 50μL 1×tyrosine kinase buffer containing tissue extract + 50μL 1×tyrosine kinase buffer containing ATP; Positive control: 10μL 1×tyrosine kinase buffer containing L029 + 50μL 1×tyrosine kinase buffer containing tissue extract + 50μL 1×tyrosine kinase buffer containing ATP; Vehicle control: 10μL 1×tyrosine kinase buffer containing DMSO + 50μL 1×tyrosine kinase buffer containing tissue extract + 50μL 1×tyrosine kinase buffer containing ATP; Compounds to be screened: 10μL 1×tyrosine kinase buffer containing compounds to be tested + 50μL 1× tyrosine kinase buffer containing tissue extract + 50μL 1×tyrosine kinase buffer containing ATP. (First, L029 and the compounds were allowed to interact with the tyrosine kinase tissue extract at room temperature for 10 min in advance, and did the same to the Blank control and the Vehicle control, then 50μL 1×tyrosine kinase buffer containing ATP was added to […]
2.1.6. Tyrosine kinase inhibitory activity assay: 1×tyrosine kinase buffer was prepared by evenly mixing 1 mL 10× tyrosine kinase buffer with 9 mL DDW. The tissue extract was diluted with 1×tyrosine kinase buffer appropriately, mixed with it gently and evenly, and placed on ice. ATP stock solution was mixed with 1×tyrosine kinase buffer at the final concentration of 3mM , and placed on ice. The microplate was added in respective wells with the groups formulated as above, covered with the lid, and incubated at 37℃ for 30 min. The microplate was washed with 200μL elution buffer and tapped until the residual buffer was removed, and this procedure was repeated for five times. To each well, 100μL antibody diluent (antibody elution buffer diluted at a ratio of 1:2000) was added. The microplate was covered with the lid, and incubated at room temperature for 30 min. OPD solution was prepared by addition of 4 mg OPD into a mixture of 4.86 mL 0.1 mol/L citric acid solution and 5.14 mL 0.2 mol/L Na2HPO4 solution, followed by addition of 50μL 30% H202 to allow for complete dissolution, and then was protected from light. The antibody solution was […]
removed. The microplate was washed with 200μL elution buffer and tapped until the residual buffer was removed, and this procedure was repeated for five times. 100μL freshly prepared OPD was added, and reacted at room temperature light tight for precisely 7 min. Negative […]
100μL 2.5 N H2SO4 was added to terminate the reaction. OD
2.1.7. Sample screening: Samples were screened preliminarily by using triplicate assay. The effect of the samples on tyrosine kinase inhibitory activity was tested, and the inhibition rate was calculated. Inhibition rate (%)=(ODnegative control – ODsample) / (ODnegative control* – ODblank) × 100%; *While calculating inhibition rate of positive drugs, ODnegative control in the equation was replaced with ODvehicle control to exclude the influence of DMSO on tyrosine kinase activity. […]
2. S. Praveen Kumar, Jiri Gut, Rita C. […]

Compound	IC50 [1] [µM]	activity against the HepG2 cell line, in words [2]	IC50 [2] [µM]	IC50 [3] [µM]	IC50 [4] [µM]	anticancer / antiproliferative activity over the cell line panel, in words [4]	melting point [°C]	activity against the SCC-15 cell line, in words [5]	IC50 [5] [µM]	activity against the MCF-7 cell line, in words [6]	IC50 [6] [µM]	IC50 [7] [µM]	activity against the HeLa cell line, in words ([1]; Indo 5 as reference)
O=C1Nc2ccccc2/C1=C/[S+]([O-])Cc1ccc(Br)cc1 (stereo not shown) [Compound 6j, (Z)-3-(((4-Bromobenzyl)sulfinyl)methylene)indolin-2-one]	24.1 ± 0.52	considerable cytotoxic activity	36.9 ± 0.49	44 ± 1.89	< 40	comparable antiproliferative activity against four cancer cell lines compared with compound Indo 5	195 to 196	considerable cytotoxic activity	34.9 ± 0.34	good antitumor activity	30.77 ± 0.29	1.34 ± 0.03	–
O=C1Nc2ccc(Br)cc2/C1=C/[S+]([O-])Cc1ccccc1 (stereo not shown) [Compound 6o, (Z)-3-((Benzylsulfinyl)methylene)-5-bromoindolin-2-one]	18.2 ± 0.66	considerable cytotoxic activity	54.4 ± 0.88	54.9 ± 0.66	< 40	comparable antiproliferative activity against four cancer cell lines compared with compound Indo 5	200 to 201	considerable cytotoxic activity	28.6 ± 1.58	good antitumor activity	32.3 ± 0.77	2.69 ± 0.29	stronger activity than Indo 5
